ChEMBL document CHEMBL1201862, “PubChem BioAssay data set” (2004)
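Interpolation was linear, between the two tested concentrations surrounding the appropriate level; five concentrations were tested over 48 hours in 96-well plates. The concentration for 50% growth inhibition is given as GI50.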 Active and inactive are the calls of the source. No stated cut-off is given here; in the data, active = GI50 up to about 1.1 µM and inactive = higher.

Experiments:
Assay in all cases: NCI tumour cell line growth inhibition, 48 h
786-0 = tested on: 786-0
ACHN = tested on: ACHN
HCC 2998 = tested on: HCC 2998
HCT-116 = tested on: HCT-116
HT-29 = tested on: HT-29
Hs-578T = tested on: Hs-578T
MDA-MB-231 = tested on: MDA-MB-231
MDA-MB-435 = tested on: MDA-MB-435
MDA-N = tested on: MDA-N
NCI-H226 = tested on: NCI-H226
NCI-H522 = tested on: NCI-H522
OVCAR-4 = tested on: OVCAR-4
OVCAR-5 = tested on: OVCAR-5
OVCAR-8 = tested on: OVCAR-8
SK-MEL-28 = tested on: SK-MEL-28
SK-OV-3 = tested on: SK-OV-3
SR = tested on: SR
T47D = tested on: T47D
UO-31 = tested on: UO-31
HL-60 = tested on: HL-60

SMILES	GI50 (786-0)	GI50 (ACHN)	GI50 (HCC 2998)	GI50 (HCT-116)	GI50 (HT-29)	GI50 (Hs-578T)	GI50 (MDA-MB-231)	GI50 (MDA-MB-435)	GI50 (MDA-N)	GI50 (NCI-H226)	GI50 (NCI-H522)	GI50 (OVCAR-4)	GI50 (OVCAR-5)	GI50 (OVCAR-8)	GI50 (SK-MEL-28)	GI50 (SK-OV-3)	GI50 (SR)	GI50 (T47D)	GI50 (UO-31)	GI50 (HL-60)
COc1cccc2nc3c(C(=O)NCCN(C)C)cccc3cc12	1.16 µM (inactive)	0.655 µM (active)	3.44 µM (inactive)	1.34 µM (inactive)	1.21 µM (inactive)	1.82 µM (inactive)	2.37 µM (inactive)	2.69 µM (inactive)	2.18 µM (inactive)	1.4 µM (inactive)	1.26 µM (inactive)	1.67 µM (inactive)	1.94 µM (inactive)	1.26 µM (inactive)	2.63 µM (inactive)	1.43 µM (inactive)	0.42 µM (active)	3.65 µM (inactive)	1.11 µM (active)	
S=C(CSc1ccccc1)Nc1cccc2ccccc12	41.7 µM (inactive)	39.7 µM (inactive)		35 µM (inactive)	43.1 µM (inactive)	77.1 µM (inactive)	80.2 µM (inactive)	34.1 µM (inactive)	40.7 µM (inactive)	42 µM (inactive)	20.9 µM (inactive)	21.6 µM (inactive)	72.1 µM (inactive)	67 µM (inactive)	> 100 µM (inactive)	> 100 µM (inactive)	22.5 µM (inactive)	40.3 µM (inactive)	46.2 µM (inactive)	40.9 µM (inactive)
N=C(CC(=O)Nc1ccccn1)c1ccccc1	> 100 µM (inactive)	> 100 µM (inactive)		> 100 µM (inactive)	> 100 µM (inactive)	> 100 µM (inactive)	> 100 µM (inactive)	> 100 µM (inactive)	> 100 µM (inactive)	> 100 µM (inactive)	> 100 µM (inactive)	> 100 µM (inactive)	> 100 µM (inactive)	> 100 µM (inactive)	> 100 µM (inactive)	> 100 µM (inactive)	> 100 µM (inactive)	> 100 µM (inactive)	> 100 µM (inactive)	> 100 µM (inactive)
COC(=O)C1(C(=O)OC)Cc2ccc(C)cc2C2=C1C(=O)c1ccccc1C2=O	26.4 µM (inactive)	16.5 µM (inactive)		18.2 µM (inactive)	21.7 µM (inactive)	24.6 µM (inactive)	16.7 µM (inactive)	15.6 µM (inactive)	16.5 µM (inactive)	> 100 µM (inactive)	15.1 µM (inactive)	11.5 µM (inactive)	21 µM (inactive)	13.3 µM (inactive)	16.6 µM (inactive)		24.2 µM (inactive)	7.71 µM (inactive)		31.6 µM (inactive)
O=C(/C=C/c1ccc(O)c(O)c1)c1cc(O)cc(O)c1	13.7 µM (inactive)	14.7 µM (inactive)		12.8 µM (inactive)	19.4 µM (inactive)	11 µM (inactive)	12.8 µM (inactive)	6.59 µM (inactive)	6 µM (inactive)	14.8 µM (inactive)	1.71 µM (inactive)	10.4 µM (inactive)	14.6 µM (inactive)	14.3 µM (inactive)	16.4 µM (inactive)	13.9 µM (inactive)	5.24 µM (inactive)	10.5 µM (inactive)	10.6 µM (inactive)	2.25 µM (inactive)
O=C1CS(=O)(=O)C(c2cccc(Oc3ccccc3)c2)N1c1cccc(Cl)c1Cl (stereo unspecified)	15 µM (inactive)	20.3 µM (inactive)		22.4 µM (inactive)	25.2 µM (inactive)	29.8 µM (inactive)	23.8 µM (inactive)	19.7 µM (inactive)	19.6 µM (inactive)	35.7 µM (inactive)	18 µM (inactive)	20.4 µM (inactive)	47.5 µM (inactive)	19.1 µM (inactive)	51.4 µM (inactive)	67 µM (inactive)	18.7 µM (inactive)	26.2 µM (inactive)	29.5 µM (inactive)	31 µM (inactive)
S=C1c2cc(Cl)ccc2N=C(NC2CCCC2)C2CSCN12 (stereo unspecified)	> 100 µM (inactive)	> 100 µM (inactive)	> 100 µM (inactive)	> 74.5 µM (inactive)	> 100 µM (inactive)	> 96.6 µM (inactive)	> 100 µM (inactive)	> 91.8 µM (inactive)	97.3 µM (inactive)	> 100 µM (inactive)	> 100 µM (inactive)	> 100 µM (inactive)	> 100 µM (inactive)	> 100 µM (inactive)	> 100 µM (inactive)	> 100 µM (inactive)	> 60.1 µM (inactive)	> 55 µM (inactive)	> 100 µM (inactive)	
CC(C)C12CCC3(CCC4C(C)(C(=O)O)CCCC4(C)C3C1)C(CN)C2 (stereo unspecified)	20.2 µM (inactive)	33.4 µM (inactive)	18.4 µM (inactive)	17.3 µM (inactive)	23.4 µM (inactive)	62.8 µM (inactive)	58.7 µM (inactive)	37.7 µM (inactive)	28.4 µM (inactive)	34.2 µM (inactive)	23.8 µM (inactive)	67.9 µM (inactive)	42.3 µM (inactive)	30.7 µM (inactive)	39.7 µM (inactive)	> 100 µM (inactive)	25.9 µM (inactive)	55.2 µM (inactive)	40.4 µM (inactive)	
CNC(=O)C1(N)c2ccccc2C=Cc2ccccc21	> 100 µM (inactive)	> 100 µM (inactive)		> 100 µM (inactive)	> 100 µM (inactive)	> 100 µM (inactive)	> 100 µM (inactive)	> 100 µM (inactive)	> 100 µM (inactive)	> 100 µM (inactive)	> 100 µM (inactive)	> 100 µM (inactive)	> 100 µM (inactive)	> 100 µM (inactive)	> 100 µM (inactive)	> 100 µM (inactive)	> 100 µM (inactive)	> 100 µM (inactive)	> 100 µM (inactive)	> 100 µM (inactive)
Cc1cc(O)c(C(c2ccncc2)c2c(O)cc(C)[nH]c2=O)c(=O)[nH]1	> 100 µM (inactive)	> 100 µM (inactive)		> 100 µM (inactive)	> 100 µM (inactive)	> 100 µM (inactive)	> 100 µM (inactive)	> 100 µM (inactive)	> 100 µM (inactive)		> 100 µM (inactive)	> 100 µM (inactive)	> 100 µM (inactive)	> 100 µM (inactive)	> 100 µM (inactive)	> 100 µM (inactive)	> 100 µM (inactive)	> 100 µM (inactive)	> 100 µM (inactive)	> 100 µM (inactive)
C[C@@H]1C[C@H]2[C@@H]3CCC4=CC(=O)C=C[C@]4(C)[C@@]3(Cl)[C@@H](Cl)C[C@]2(C)[C@@]1(O)C(=O)COP(=O)(O)O	49.3 µM (inactive)	> 100 µM (inactive)	> 100 µM (inactive)	89.3 µM (inactive)	> 100 µM (inactive)	> 100 µM (inactive)	> 100 µM (inactive)	> 100 µM (inactive)	56.2 µM (inactive)	> 100 µM (inactive)	> 100 µM (inactive)	> 100 µM (inactive)	> 100 µM (inactive)	> 100 µM (inactive)	> 100 µM (inactive)	> 100 µM (inactive)	11.4 µM (inactive)	> 100 µM (inactive)	> 100 µM (inactive)	
